Data taken from patent publication US20040121994A1, “Novel amides that activate soluble guanylate cyclase” (priority 2002, published 2004).

Columns and labels:
[1] = target: T1, soluble guanylate cyclase (sGC), α1 and β1 subunits of guanylate cyclase expressed in Sf9 cells (Homo sapiens, UniProt Q02108+Q02153); test: Guanylate cyclase assay (formation of cyclic GMP from GTP); assay type: biochemical; settings: for Mean activation at 100 μM: (activity of compound at 100 μM with 1 μM SNP)−(activity of compound at 100 μM)/(activity of SNP at 1 μM)−(basal activity of sGC); for Mean efficacy of compound combined with 1 μM of SNP, [%]: compound at 100 μM with 1 μM sodium nitro prusside (SNP); for Mean efficacy of compound combined with 1 μM of SNP, [%] / Emax at 100 µM: normalized with the activity of 100 μM YC-1 (without SNP) as 100%; for Emax at 100 µM: compound at 100 μM without SNP, read-out: Mean basal efficacy of compound alone at 100 μM, [%]
T1 construct: made in house; host or cells: Sf9 insect cells (baculovirus co-infection)
T1 sequence (Q02108 1-690): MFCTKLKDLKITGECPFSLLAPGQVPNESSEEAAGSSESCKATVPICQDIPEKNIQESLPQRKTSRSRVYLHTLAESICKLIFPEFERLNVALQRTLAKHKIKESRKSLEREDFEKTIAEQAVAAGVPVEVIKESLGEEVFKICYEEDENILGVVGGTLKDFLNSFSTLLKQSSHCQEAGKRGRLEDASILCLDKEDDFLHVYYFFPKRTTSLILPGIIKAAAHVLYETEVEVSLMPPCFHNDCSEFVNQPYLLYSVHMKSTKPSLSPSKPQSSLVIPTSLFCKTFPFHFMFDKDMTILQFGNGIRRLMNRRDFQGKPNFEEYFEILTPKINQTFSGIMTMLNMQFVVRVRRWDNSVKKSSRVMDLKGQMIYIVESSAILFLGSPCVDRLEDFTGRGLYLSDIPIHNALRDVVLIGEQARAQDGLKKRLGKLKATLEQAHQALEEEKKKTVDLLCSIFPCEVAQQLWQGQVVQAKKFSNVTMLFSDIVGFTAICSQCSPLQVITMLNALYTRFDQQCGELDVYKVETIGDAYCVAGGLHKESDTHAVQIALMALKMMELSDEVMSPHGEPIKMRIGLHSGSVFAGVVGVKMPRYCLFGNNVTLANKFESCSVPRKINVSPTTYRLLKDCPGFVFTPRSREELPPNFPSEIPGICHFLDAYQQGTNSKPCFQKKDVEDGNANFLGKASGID
T1 sequence (Q02153 1-619): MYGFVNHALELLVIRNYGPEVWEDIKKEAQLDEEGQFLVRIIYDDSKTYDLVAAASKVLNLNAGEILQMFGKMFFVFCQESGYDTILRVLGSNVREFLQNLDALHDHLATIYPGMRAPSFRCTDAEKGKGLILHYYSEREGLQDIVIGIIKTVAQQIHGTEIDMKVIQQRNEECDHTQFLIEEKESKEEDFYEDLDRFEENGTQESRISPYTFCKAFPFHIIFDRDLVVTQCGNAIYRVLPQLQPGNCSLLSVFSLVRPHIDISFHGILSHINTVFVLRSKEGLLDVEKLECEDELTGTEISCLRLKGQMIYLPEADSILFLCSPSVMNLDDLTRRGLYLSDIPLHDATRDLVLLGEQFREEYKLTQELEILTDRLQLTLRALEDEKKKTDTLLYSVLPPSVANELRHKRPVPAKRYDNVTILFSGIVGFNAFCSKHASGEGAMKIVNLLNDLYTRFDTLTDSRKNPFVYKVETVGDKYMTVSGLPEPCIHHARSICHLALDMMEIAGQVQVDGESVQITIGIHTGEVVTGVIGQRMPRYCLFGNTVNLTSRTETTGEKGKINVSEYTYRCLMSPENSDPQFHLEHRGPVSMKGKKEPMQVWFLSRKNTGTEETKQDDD
Procedure, shortened: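 Sf9 high-speed supernatant with human sGC α1/β1 converted 1 mM GTP to cGMP over 15 min at 37 °C (50 mM Tris pH 7.6, 4 mM MgCl2, 0.5 mM IBMX); cGMP by enzyme immunoassay. Compounds at 100 μM, with or without 1 μM SNP; activity expressed relative to 100 μM YC-1 (no SNP) as 100%.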

For `O=C(/C=C/c1ccccc1Sc1ccc(Cl)cc1)NC1CCC(O)CC1` (stereo not drawn) [Example 30, (2E)-3-{2-[(4-chlorophenyl)thio]phenyl}-N-(4-hydroxycyclohexyl)acrylamide], the “Mean activation at 100 μM” value [1] was 3.4, the “Mean efficacy of compound combined with 1 μM of SNP, [%]” value (“Mean efficacy … [%]” for short) [1] was 289% and the Emax at 100 µM [1] was 66%. The melting point was 86 to 88 °C.
With `O=C(/C=C/c1ccccc1Sc1ccc(Cl)cc1Cl)NCCCCO` [Example 29, (2E)-3-{2-[(2,4-dichlorophenyl)thio]phenyl}-N-(4-hydroxybutyl)acrylamide] the “Mean activation at 100 μM” value [1] was 2.9, the “Mean efficacy … [%]” value [1] was 110% and the Emax at 100 µM [1] was 69%. It also gave a melting point of 68 to 71 °C.
With `COc1ccc(Sc2ccccc2/C=C/C(=O)NCCCCO)cc1` [Example 43, (2E)-N-(4-hydroxybutyl)-3-{2-[(4-methoxyphenyl)thio]phenyl}acrylamide] the “Mean activation at 100 μM” value [1] was 9.5, the “Mean efficacy … [%]” value [1] was 160% and the Emax at 100 µM [1] was 54%. It also gave a melting point of 134 to 136 °C.
In the case of `Cc1ccc(Sc2ccccc2/C=C/C(=O)NC(C)CCCC(C)(C)O)c(C)c1` (stereo not drawn) [Example 53, (2E)-3-{2-[(2,4-dimethylphenyl)thio]phenyl}-N-(5-hydroxy-1,5-dimethylhexyl)acrylamide], the “Mean activation at 100 μM” value [1] is reported as 1.7, the “Mean efficacy … [%]” value [1] is reported as 10% and the Emax at 100 µM [1] is reported as 4%.
